Drawing on patent US20250195513A1, “DEGRADATION OF IRAK4 BY CONJUGATION OF IRAK4 INHIBITORS WITH E3 LIGASE LIGAND AND METHODS OF USE” (BeiGene, Ltd., priority 2022, published 2025), this text covers Dmax and DC50 for 13 molecules.

The target in experiment [1] is T1, IRAK4 (Homo sapiens, UniProt Q9NWZ3).
T1 construct: endogenous in cells; host or cells: Karpas299
T1 sequence (Q9NWZ3 1-460): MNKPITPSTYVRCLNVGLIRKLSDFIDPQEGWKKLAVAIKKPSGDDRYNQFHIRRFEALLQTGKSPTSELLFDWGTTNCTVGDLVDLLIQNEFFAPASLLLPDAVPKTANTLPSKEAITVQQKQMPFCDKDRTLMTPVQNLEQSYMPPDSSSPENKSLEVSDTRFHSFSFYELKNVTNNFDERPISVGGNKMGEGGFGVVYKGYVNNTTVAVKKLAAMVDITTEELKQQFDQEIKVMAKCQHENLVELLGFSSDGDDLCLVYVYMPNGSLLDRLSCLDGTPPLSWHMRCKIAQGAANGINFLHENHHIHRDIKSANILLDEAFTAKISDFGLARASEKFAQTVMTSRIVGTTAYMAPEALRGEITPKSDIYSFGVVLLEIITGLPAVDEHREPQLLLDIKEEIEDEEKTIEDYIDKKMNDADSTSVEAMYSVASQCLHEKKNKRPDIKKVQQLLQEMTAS
Put plainly: IRAK4 Degradation Assay (Karpas299, HTRF/TR-FRET). The format is cell-based. The conditions noted are these: Karpas-299 cells, 24 h treatment; for Dmax: maximum percentage of degradation, read-out: IRAK4 in Karpas-299 (24 h) Dmax (%); for DC50: read-out: IRAK4 in Karpas-299 (24 h) DC50. An outline of the steps:
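Compound potency as DC50 (IC50) came from four-parameter fits of percent IRAK4 degradation. IRAK4 was measured by HTRF (665/620 nm) in lysates of Karpas299 cells seeded at 0.2 million per well. Cells had been treated with compound dilutions for 5 or 24 h.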
A general note: TR-FRET usually uses a lanthanide donor and a delayed reading to cut background.

The target in experiment [2] is T1, IRAK4. Put plainly: IRAK4 Degradation Assay with Human Serum (Karpas299, HTRF/TR-FRET). The experiment is classed as cell-based. The conditions noted are these: Karpas-299 in human serum, 24 hrs treatment; for DC50: read-out: IRAK4 degradtion with human serum assay DC50; for Dmax: read-out: IRAK4 degradtion with human serum assay Dmax (%). An outline of the steps:
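Remaining IRAK4 measured by TR-FRET immunoassay on lysates of Karpas299 cells exposed 24 h to compound dilution series in human serum AB. DC50 derived from a Hill-slope fit of % degradation versus concentration.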

Each structure is given as a SMILES string.

The term Dmax denotes the greatest extent of degradation seen. For orientation: DC50 means the concentration giving 50% degradation. As for `CC(C)(O)c1cc2nn([C@H]3CC[C@H](N4CCN(CCc5cc(F)c([C@H]6CCC(=O)NC6=O)c(F)c5)CC4)CC3)cc2cc1NC(=O)c1ccc2cc(Br)cnn12` [Example 414, 3-bromo-N-(2-((1R,4r)-4-(4-(4-((R)-2,6-dioxopiperidin-3-yl)-3,5-difluorophenethyl)piperazin-1-yl)cyclohexyl)-6-(2-hydroxypropan-2-yl)-2H-indazol-5-yl)pyrrolo[1,2-b]pyridazine-7-carboxamide], in experiment [1], the Dmax was determined as 96% and the 50% degradation concentration (DC50) was 1.5 nM. For the same molecule, in experiment [2], the DC50 was determined as 439 nM and the Dmax worked out at 97%.

As for `COC[C@@H]1CN(C2CCN(c3cc(F)c([C@H]4CCC(=O)NC4=O)c(F)c3)CC2)CCN1[C@H]1CC[C@H](n2cc3cc(NC(=O)c4ccc5cc(C#N)cnn45)c(C(C)(C)O)cc3n2)CC1` [Example 328, 3-cyano-N-(2-((1S,4r)-4-((S)-4-(1-(4-((R)-2,6-dioxopiperidin-3-yl)-3,5-difluorophenyl)piperidin-4-yl)-2-(methoxymethyl)piperazin-1-yl)cyclohexyl)-6-(2-hydroxypropan-2-yl)-2H-indazol-5-yl)pyrrolo[1,2-b]pyridazine-7-carboxamide], the Dmax worked out at 98% in experiment [1] and 101% in experiment [2]. For the same molecule, the values for the DC50 in experiment [1] and in experiment [2] were 0.8 nM and 19 nM, respectively.

As for `CC(C)(O)c1cc2nn([C@H]3CC[C@H](N4CCN(C(=O)C5CCN(c6ccc7c(c6)C(=O)N(C6CCC(=O)NC6=O)C7=O)CC5)CC4)CC3)cc2cc1NC(=O)c1ccc2cc(C#N)cnn12` (stereo partly shown) [Example 429, 3-cyano-N-(2-((1r,4r)-4-(4-(1-(2-(2,6-dioxopiperidin-3-yl)-1,3-dioxoisoindolin-5-yl)piperidine-4-carbonyl)piperazin-1-yl)cyclohexyl)-6-(2-hydroxypropan-2-yl)-2H-indazol-5-yl)pyrrolo[1,2-b]pyridazine-7-carboxamide], in experiment [1], the Dmax came out at 97% and the DC50 was determined as 1 nM. Moreover, in experiment [2], the DC50 is 32 nM and the Dmax amounted to 94%.

With `CC(C)(O)c1cc2nn([C@H]3CC[C@H](N4CCN(CCCc5cc(F)c([C@H]6CCC(=O)NC6=O)c(F)c5)CC4)CC3)cc2cc1NC(=O)c1ccc2cc(C#N)cnn12` [Example 357, 3-cyano-N-(2-((1R,4r)-4-(4-(3-(4-((R)-2,6-dioxopiperidin-3-yl)-3,5-difluorophenyl)propyl)piperazin-1-yl)cyclohexyl)-6-(2-hydroxypropan-2-yl)-2H-indazol-5-yl)pyrrolo[1,2-b]pyridazine-7-carboxamide], in experiment [1], the Dmax is 97% and the DC50 came out at 1.1 nM. For the same molecule, in experiment [2], the DC50 was found to be 12 nM and the Dmax amounted to 97%.

With `CC(C)(O)c1cc2nn([C@H]3CC[C@H](N4CCN(C5CCN(c6ccc7c(c6)CN(C6CCC(=O)NC6=O)C7=O)CC5)CC4)CC3)cc2cc1NC(=O)c1ccc2cc(C#N)cnn12` (stereo partly shown) [Example 417, 3-cyano-N-(2-((1r,4r)-4-(4-(1-(2-(2,6-dioxopiperidin-3-yl)-1-oxoisoindolin-5-yl)piperidin-4-yl)piperazin-1-yl)cyclohexyl)-6-(2-hydroxypropan-2-yl)-2H-indazol-5-yl)pyrrolo[1,2-b]pyridazine-7-carboxamide], in experiment [1], the Dmax was determined as 95% and the DC50 was 0.9 nM. In addition, in experiment [2], the DC50 stood at 4.5 nM and the Dmax was 95%.

`CC(C)(O)c1cc2nn([C@H]3CC[C@H](N4CCN([C@H]5CCN(c6cc(F)c(C7CCC(=O)NC7=O)c(F)c6)C5)CC4)CC3)cc2cc1NC(=O)c1ccc2cc(C#N)cnn12` (stereo partly drawn) [Example 395, 3-cyano-N-(2-((1S,4r)-4-(4-((3S)-1-(4-(2,6-dioxopiperidin-3-yl)-3,5-difluorophenyl)pyrrolidin-3-yl)piperazin-1-yl)cyclohexyl)-6-(2-hydroxypropan-2-yl)-2H-indazol-5-yl)pyrrolo[1,2-b]pyridazine-7-carboxamide]: the Dmax is 97% in experiment [1] and 99% in experiment [2]. Besides, the results for the 50% degradation concentration (DC50) in experiment [1] and in experiment [2] were 0.8 nM and 21 nM, respectively.

For `CC(C)(O)c1cc2nn([C@H]3CC[C@H](C4CCN(CC5CN(c6cc(F)c([C@H]7CCC(=O)NC7=O)c(F)c6)C5)CC4)CC3)cc2cc1NC(=O)c1ccc2cc(C#N)cnn12` [Example 390, 3-cyano-N-(2-((1r,4r)-4-(1-((1-(4-((R)-2,6-dioxopiperidin-3-yl)-3,5-difluorophenyl)azetidin-3-yl)methyl)piperidin-4-yl)cyclohexyl)-6-(2-hydroxypropan-2-yl)-2H-indazol-5-yl)pyrrolo[1,2-b]pyridazine-7-carboxamide], in experiment [1], the Dmax is 99% and the DC50 stood at 2 nM. In addition, in experiment [2], the DC50 is 24 nM and the Dmax came out at 99%.

For the molecule `CC(C)(O)c1cc2nn([C@H]3CC[C@H](N4CCN(CC5CCN(c6ccc7c(c6)CN(C6CCC(=O)NC6=O)C7=O)CC5)CC4)CC3)cc2cc1NC(=O)c1ccc2cc(C#N)cnn12` (stereo partly shown) [Example 353, 3-cyano-N-(2-((1r,4r)-4-(4-((1-(2-(2,6-dioxopiperidin-3-yl)-1-oxoisoindolin-5-yl)piperidin-4-yl)methyl)piperazin-1-yl)cyclohexyl)-6-(2-hydroxypropan-2-yl)-2H-indazol-5-yl)pyrrolo[1,2-b]pyridazine-7-carboxamide], in experiment [1], the Dmax is 95% and the DC50 came out at 0.8 nM. Besides, in experiment [2], the DC50 came to 3.5 nM and the Dmax stood at 88%.

For `CC(C)(O)c1cc2nn([C@H]3CC[C@H](N4CCN(C(=O)C5CN(c6cnc(C7CCC(=O)NC7=O)c(F)c6)C5)CC4)CC3)cc2cc1NC(=O)c1ccc2cc(C#N)cnn12` (stereo partly shown) [Example 187, 3-cyano-N-(2-((1r,4r)-4-(4-(1-(6-(2,6-dioxopiperidin-3-yl)-5-fluoropyridin-3-yl)azetidine-3-carbonyl)piperazin-1-yl)cyclohexyl)-6-(2-hydroxypropan-2-yl)-2H-indazol-5-yl)pyrrolo[1,2-b]pyridazine-7-carboxamide], in experiment [1], the Dmax was found to be 96% and the half-maximal degradation concentration (DC50) is 0.6 nM. For the same molecule, in experiment [2], the DC50 worked out at 11 nM and the Dmax is 98%.

`C[C@@H]1CN(C(=O)C2CN(c3cc(F)c(N4CCC(=O)NC4=O)c(F)c3)C2)CCN1[C@H]1CC[C@H](n2cc3cc(NC(=O)c4ccc5cc(C#N)cnn45)c(C(C)(C)O)cc3n2)CC1` [Example 303, 3-cyano-N-(2-((1R,4r)-4-((R)-4-(1-(4-(2,4-dioxotetrahydropyrimidin-1(2H)-yl)-3,5-difluorophenyl)azetidine-3-carbonyl)-2-methylpiperazin-1-yl)cyclohexyl)-6-(2-hydroxypropan-2-yl)-2H-indazol-5-yl)pyrrolo[1,2-b]pyridazine-7-carboxamide]: the Dmax in experiment [1] and in experiment [2] was 101% each time. The DC50 in experiment [1] is 0.4 nM; in experiment [2], 16 nM.

For `C[C@@H]1CN([C@H]2C[C@@H](c3cc(F)c([C@H]4CCC(=O)NC4=O)c(F)c3)C2)CCN1[C@H]1CC[C@H](n2cc3cc(NC(=O)c4ccc5cc(C#N)cnn45)c(C(C)(C)O)cc3n2)CC1` [Example 365, 3-cyano-N-(2-((1R,4r)-4-((R)-4-((1S,3S)-3-(4-((R)-2,6-dioxopipendin-3-yl)-3,5-difluorophenyl)cyclobutyl)-2-methylpiperazin-1-yl)cyclohexyl)-6-(2-hydroxypropan-2-yl)-2H-indazol-5-yl)pyrrolo[1,2-b]pyridazine-7-carboxamide], in experiment [1], the Dmax worked out at 93% and the DC50 was 1.1 nM. For the same molecule, in experiment [2], the DC50 was found to be 7.7 nM and the Dmax amounted to 93%.

Turning to `CC(C)(O)c1cc2nn([C@H]3CC[C@H](N4CCN(C5CCN(c6ccc7c(c6)C(=O)N(C6CCC(=O)NC6=O)C7=O)CC5)CC4)CC3)cc2cc1NC(=O)c1ccc2cc(C#N)cnn12` (stereo partly shown) [Example 430, 3-cyano-N-(2-((1r,4r)-4-(4-(1-(2-(2,6-dioxopiperidin-3-yl)-1,3-dioxoisoindolin-5-yl)piperidin-4-yl)piperazin-1-yl)cyclohexyl)-6-(2-hydroxypropan-2-yl)-2H-indazol-5-yl)pyrrolo[1,2-b]pyridazine 7-carboxamide], the Dmax in experiment [1] was 97%; in experiment [2] it was 98%. Besides, the figures for the DC50 in experiment [1] and in experiment [2] were 1.4 nM and 15 nM, respectively.

For `C[C@@H]1CN([C@H]2CC[C@H](n3cc4cc(NC(=O)c5ccc6cc(C#N)cnn56)c(C(C)(C)O)cc4n3)CC2)CCN1CC1CN(c2cc(F)c([C@H]3CCC(=O)NC3=O)c(F)c2)C1` [Example 310, 3-cyano-N-(2-((1R,4r)-4-((R)-4-((1-(4-((R)-2,6-dioxopiperidin-3-yl)-3,5-difluorophenyl)azetidin-3-yl)methyl)-3-methylpiperazin-1-yl)cyclohexyl)-6-(2-hydroxypropan-2-yl)-2H-indazol-5-yl)pyrrolo[1,2-b]pyridazine-7-carboxamide], in experiment [1], the Dmax was determined as 98% and the half-maximal degradation concentration (DC50) was 0.6 nM. Besides, in experiment [2], the DC50 is 3.2 nM and the Dmax was found to be 102%.
